Activity calls are given as the source filed them.
Legend:
Genome polyprotein = Genome polyprotein (Hepatitis C virus, UniProt Q2Q167); test: disruption of hepatitis C core self-association – biochemical, TR-FRET, dose response (AID 2159); set-up: species or system Hepacivirus hominis;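 further: blocks dimerization of HCV core protein measured by TR-FRET between tagged core106 pairs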
[1] = viability loss in THP-1 monocytes – THP-1 cells, cytotoxicity control for Vif-APOBEC3G degradation inhibitor project, dose response (AID 1117359); type: functional; conditions: THP-1
[2] = molecular target: T1, Carboxy-terminal domain RNA polymerase II polypeptide A small phosphatase 1 (Homo sapiens, UniProt Q9GZU7); test: CTDSP1 inhibitors, concentration-response, biochemical, absorbance readout, ultra-high-throughput screen actives (AID 540297); type: functional
T1 sequence (Q9GZU7 whole entry): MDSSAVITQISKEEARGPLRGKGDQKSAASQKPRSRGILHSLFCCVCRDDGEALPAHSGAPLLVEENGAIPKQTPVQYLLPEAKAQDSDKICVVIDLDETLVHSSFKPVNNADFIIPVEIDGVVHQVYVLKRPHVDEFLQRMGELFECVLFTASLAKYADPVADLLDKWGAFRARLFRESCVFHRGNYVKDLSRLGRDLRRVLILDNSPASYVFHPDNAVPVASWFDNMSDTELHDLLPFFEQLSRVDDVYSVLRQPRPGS

[3] = M. tuberculosis growth inhibition, HTS (AID 449762); type: functional
NADPH oxidase 1 = NADPH oxidase 1 (Homo sapiens, UniProt Q9Y5S8); test: Late-stage luminescence-based cell-based dose response assay to identify inhibitors of NADPH oxidase 1 (NOX1): Synthesized analogs 2.; type: functional
NADPH oxidase 1, sequence (Q9Y5S8 whole entry): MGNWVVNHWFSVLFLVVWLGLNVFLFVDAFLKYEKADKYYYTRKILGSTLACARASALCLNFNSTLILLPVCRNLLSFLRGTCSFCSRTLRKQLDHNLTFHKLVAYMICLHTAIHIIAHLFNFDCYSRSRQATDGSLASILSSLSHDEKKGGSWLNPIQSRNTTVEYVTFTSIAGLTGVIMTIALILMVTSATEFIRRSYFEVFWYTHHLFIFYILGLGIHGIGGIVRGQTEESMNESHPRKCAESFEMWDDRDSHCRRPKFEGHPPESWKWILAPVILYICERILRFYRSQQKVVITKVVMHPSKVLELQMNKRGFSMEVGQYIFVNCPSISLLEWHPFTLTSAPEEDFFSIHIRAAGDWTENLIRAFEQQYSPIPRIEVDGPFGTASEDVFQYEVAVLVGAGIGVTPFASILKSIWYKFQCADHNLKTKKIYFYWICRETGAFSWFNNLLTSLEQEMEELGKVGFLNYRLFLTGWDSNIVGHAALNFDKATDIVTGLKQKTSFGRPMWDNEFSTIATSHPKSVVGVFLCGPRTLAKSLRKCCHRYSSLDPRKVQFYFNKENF

[4] = molecular target: Solute carrier family 12 member 2/member 5 (Homo sapiens, UniProt P55011+Q9H2X9); test: KCC2 and NKCC1 inhibition by rubidium flux, cell-based, NKCC1 counter-screen (AID 1734); type: functional, HEK293
[5] = molecular target: T2, Sphingosine 1-phosphate receptor 2 (Homo sapiens, UniProt O95136); test: Late stage counterscreen assay for S1P4 antagonists: Fluorescence dose response cell-based screening assay for antagonists of the Sphingosine 1-Phosphate Receptor 2 (S1P2). [Related pubchem assays (depositor defined):AID1510, AID1524, AID1692, AID1853, AID2332, AID489009, AID489017]; type: functional
T2 sequence (O95136 whole entry): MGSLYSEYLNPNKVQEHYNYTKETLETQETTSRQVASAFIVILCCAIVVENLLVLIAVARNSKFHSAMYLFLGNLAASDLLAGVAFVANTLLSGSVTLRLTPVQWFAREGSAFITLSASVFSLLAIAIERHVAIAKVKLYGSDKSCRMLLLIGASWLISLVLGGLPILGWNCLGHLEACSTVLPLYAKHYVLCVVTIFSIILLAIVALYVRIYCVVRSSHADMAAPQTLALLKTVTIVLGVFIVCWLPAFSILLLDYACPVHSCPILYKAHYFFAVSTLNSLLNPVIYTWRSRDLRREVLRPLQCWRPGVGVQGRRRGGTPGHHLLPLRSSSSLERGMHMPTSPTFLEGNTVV

[6] = alpha-synuclein stem-loop luciferase translation blockers – H4 neuroglioma cells, luminescence, confirmation (AID 1988); type: functional, cell-based
Paired box protein Pax-8 = Paired box protein Pax-8 (Homo sapiens, UniProt Q06710); test: PAX8 transcriptional activity inhibition in RMG-I – RMG-I cells, luciferase, cherry-pick, dose response (AID 687027); type: functional, cell-based;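 further: luciferase reporter driven by Pax8 target thyroperoxidase promoter measured by SteadyGlo luminescence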
Paired box protein Pax-8, sequence (Q06710 whole entry): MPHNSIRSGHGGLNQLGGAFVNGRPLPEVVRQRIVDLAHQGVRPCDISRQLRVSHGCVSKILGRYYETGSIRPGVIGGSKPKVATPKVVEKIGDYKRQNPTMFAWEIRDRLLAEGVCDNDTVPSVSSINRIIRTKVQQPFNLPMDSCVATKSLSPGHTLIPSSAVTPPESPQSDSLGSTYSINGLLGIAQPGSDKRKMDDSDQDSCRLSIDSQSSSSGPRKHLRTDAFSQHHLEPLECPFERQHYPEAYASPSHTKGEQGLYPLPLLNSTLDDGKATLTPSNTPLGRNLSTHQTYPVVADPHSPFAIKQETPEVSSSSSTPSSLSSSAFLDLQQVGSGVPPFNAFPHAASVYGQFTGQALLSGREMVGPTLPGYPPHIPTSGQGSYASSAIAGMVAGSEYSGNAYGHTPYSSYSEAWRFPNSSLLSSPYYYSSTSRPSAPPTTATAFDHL

[7] = loss of viability in HepG2 cells – cell-based, CellTiter-Glo, cherry-picked, cytotoxicity control for Shn3 inhibitor project, dose response (AID 624134); type: functional
[8] = molecular target: T3, Sphingosine 1-phosphate receptor 1 (Homo sapiens, UniProt P21453); test: Late stage counterscreen assay for S1P4 antagonists: Fluorescence dose response cell-based screening assay for antagonists of the Sphingosine 1-Phosphate Receptor 1 (S1P1). [Related pubchem assays (depositor defined):AID1510, AID1524, AID1692, AID1853, AID2332, AID489009, AID489017]; type: functional
T3 sequence (P21453 whole entry): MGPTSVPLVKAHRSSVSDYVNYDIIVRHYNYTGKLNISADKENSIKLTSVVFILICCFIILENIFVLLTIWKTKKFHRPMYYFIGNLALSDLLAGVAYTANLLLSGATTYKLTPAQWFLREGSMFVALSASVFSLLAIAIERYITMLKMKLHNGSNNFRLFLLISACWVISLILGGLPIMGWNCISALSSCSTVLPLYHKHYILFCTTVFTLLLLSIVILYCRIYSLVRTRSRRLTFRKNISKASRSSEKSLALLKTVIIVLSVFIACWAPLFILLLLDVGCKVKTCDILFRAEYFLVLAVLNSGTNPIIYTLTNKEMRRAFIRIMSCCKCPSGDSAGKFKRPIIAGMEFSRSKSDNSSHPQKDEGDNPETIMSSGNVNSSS

[9] = Trypanosoma cruzi growth suppression in host cells – NIH3T3 host cells, beta-gal luminescence, confirmation (AID 2044); type: functional, cell-based;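 further: intracellular parasites grown in NIH/3T3 mouse fibroblasts as host cells; luminescent beta-galactosidase reporter signal from transgenic T. cruzi replicating inside host cells; inhibitors lower the luminescence signal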
Streptococcus = test: GAS UMAA2166 growth inhibition – luminescence, BacTiterGlo, counter-screen for streptokinase expression inhibitor project, dose response (AID 1915); type: functional, organism-based;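 further: potency for reduction of bacterial viability or growth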
[10] = test system: Streptococcus sp. 'group A'; test: Streptococcus pyogenes SK(-)GAS viability under kanamycin – luminescence, BacTiterGlo, confirmation, counter-screen for streptokinase expression inhibitor project, dose response (AID 1900); type: functional, organism-based
[11] = molecular target: T4, Sphingosine 1-phosphate receptor 4 (Homo sapiens, UniProt O95977); test: Fluorescence dose response cell-based high throughput screening assay for antagonists of the Sphingosine 1-Phosphate Receptor 4 (S1P4). [Related pubchem assays: 1524 (Confirmation in triplicates.), 1510 (Primary screen.)]; type: functional
T4 sequence (O95977 whole entry): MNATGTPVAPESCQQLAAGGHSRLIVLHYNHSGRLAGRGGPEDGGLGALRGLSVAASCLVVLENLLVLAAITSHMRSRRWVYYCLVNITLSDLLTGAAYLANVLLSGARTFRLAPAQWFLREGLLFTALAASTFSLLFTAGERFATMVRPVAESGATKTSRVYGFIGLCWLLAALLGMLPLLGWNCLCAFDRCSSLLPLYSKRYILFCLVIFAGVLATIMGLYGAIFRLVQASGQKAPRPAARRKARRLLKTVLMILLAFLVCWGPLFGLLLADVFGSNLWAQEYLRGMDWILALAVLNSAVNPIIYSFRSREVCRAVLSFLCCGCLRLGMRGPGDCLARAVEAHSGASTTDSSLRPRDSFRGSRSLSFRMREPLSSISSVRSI

[12] = molecular target: Sphingosine 1-phosphate receptor 3 (Homo sapiens, UniProt Q99500); test: Late stage counterscreen assay for S1P4 antagonists: Fluorescence dose response cell-based screening assay for antagonists of the Sphingosine 1-Phosphate Receptor 3 (S1P3). [Related pubchem assays (depositor defined):AID1510, AID1524, AID1692, AID1853, AID2332, AID489009, AID489017]; type: functional
Sphingosine 1-phosphate receptor 3, sequence (Q99500 whole entry): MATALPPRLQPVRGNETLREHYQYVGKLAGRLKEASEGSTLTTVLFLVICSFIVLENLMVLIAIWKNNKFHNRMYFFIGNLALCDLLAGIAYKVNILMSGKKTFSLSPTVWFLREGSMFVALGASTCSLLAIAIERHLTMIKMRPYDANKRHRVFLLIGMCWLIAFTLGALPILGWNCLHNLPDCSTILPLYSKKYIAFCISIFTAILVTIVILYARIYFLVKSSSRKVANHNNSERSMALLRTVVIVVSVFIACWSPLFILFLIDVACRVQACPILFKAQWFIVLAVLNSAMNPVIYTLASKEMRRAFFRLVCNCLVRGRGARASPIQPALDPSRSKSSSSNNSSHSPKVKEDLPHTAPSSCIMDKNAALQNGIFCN

[13] = molecular target: Sphingosine 1-phosphate receptor 5 (Homo sapiens, UniProt Q9H228); test: Late stage counterscreen assay for S1P4 antagonists: Fluorescence dose response cell-based screening assay for antagonists of the Sphingosine 1-Phosphate Receptor 5 (S1P5). [Related pubchem assays (depositor defined):AID1510, AID1524, AID1692, AID1853, AID2332, AID489009, AID489017]; type: functional
Sphingosine 1-phosphate receptor 5, sequence (Q9H228 whole entry): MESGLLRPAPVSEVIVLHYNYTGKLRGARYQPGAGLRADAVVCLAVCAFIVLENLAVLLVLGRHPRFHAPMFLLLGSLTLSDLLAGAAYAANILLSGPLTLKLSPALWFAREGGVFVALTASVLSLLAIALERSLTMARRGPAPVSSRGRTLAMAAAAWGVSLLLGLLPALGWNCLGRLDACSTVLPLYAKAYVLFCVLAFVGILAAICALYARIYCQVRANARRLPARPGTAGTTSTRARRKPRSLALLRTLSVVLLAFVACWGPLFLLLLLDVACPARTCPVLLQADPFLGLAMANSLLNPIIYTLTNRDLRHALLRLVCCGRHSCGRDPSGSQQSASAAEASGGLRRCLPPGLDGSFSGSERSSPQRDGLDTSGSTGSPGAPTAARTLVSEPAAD

[14] = molecular target: T4, Sphingosine 1-phosphate receptor 4; test: Late stage fluorescence dose response cell-based screening assay for antagonists of the Sphingosine 1-Phosphate Receptor 4 (S1P4). [Related pubchem assays: 1524 (Confirmation screen (S1P4 antagonists).), 1510 (Primary screen (S1P4 antagonists).), 1853 (Summary AID (S1P4 antagonists).), 1692 (Dose response screen (S1P4 antagonists).)]; type: functional
Streptokinase A = molecular target: T5, Streptokinase A (Streptococcus pyogenes serotype M1, UniProt P10520); test: viability-normalized secreted streptokinase activity reduction – plasminogen activation absorbance, OD405, dose response (AID 1914); type: functional, Streptococcus pyogenes M1 GAS;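 further: secreted streptokinase activity via plasminogen activation per viability signal from cell pellet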
T5 sequence (P10520 whole entry): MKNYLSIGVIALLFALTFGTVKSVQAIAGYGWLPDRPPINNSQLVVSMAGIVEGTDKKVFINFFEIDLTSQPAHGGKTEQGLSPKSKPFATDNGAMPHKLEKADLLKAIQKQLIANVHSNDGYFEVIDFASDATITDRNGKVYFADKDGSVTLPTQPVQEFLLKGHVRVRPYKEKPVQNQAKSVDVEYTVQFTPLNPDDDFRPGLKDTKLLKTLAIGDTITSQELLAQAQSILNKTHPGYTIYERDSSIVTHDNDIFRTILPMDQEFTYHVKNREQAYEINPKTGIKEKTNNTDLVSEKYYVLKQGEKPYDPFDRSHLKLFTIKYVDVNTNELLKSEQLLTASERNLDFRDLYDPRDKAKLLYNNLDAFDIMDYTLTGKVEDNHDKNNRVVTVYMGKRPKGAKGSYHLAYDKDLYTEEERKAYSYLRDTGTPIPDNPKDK

[15] = Luminescence Cell-Based Dose Response HTS to Identify Inhibitors of 5'UTR Stem-Loop Driven Prion Protein mRNA Translation in H4 Neuroglioblastoma Cells. [Related pubchem assays: 1827 (Project Summary), 1813 (Primary HTS)]; type: functional
[16] = luciferase reporter signal suppression in cells – H4 neuroglioma cells, luminescence, dose response (AID 1990); type: functional, cell-based
[17] = NIH3T3 cell viability loss – ATP luminescence, mouse fibroblasts, counter-screen, dose response (AID 2010); type: functional, cell-based;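 further: cells exposed to compound for about 90 hours before reading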
[18] = molecular target: T3, Sphingosine 1-phosphate receptor 1; type: functional
[19] = reduction of Shn3 3'UTR-driven luciferase in osteoblasts – cell-based, Clone20 osteoblasts, firefly luciferase, cherry-picked, dose response (AID 624132); type: functional;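 further: firefly luciferase luminescence from reporter carrying the Shn3 3'UTR in osteoblasts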
[20] = molecular target: T2, Sphingosine 1-phosphate receptor 2; test: Dose Response Cell Based Assay for Agonists of the S1P2 Receptor of Purchased Analogues. [Related pubchem assays: 729, 843, 854, 736 ]; type: functional
Oxytocin receptor = Oxytocin receptor (Homo sapiens, UniProt P30559); test: Fluorescence-based cell-based high throughput dose response assay for potentiators of Oxytocin Receptor (OXTR). [Related pubchem assays: 434985 (Confirmation screen (OXTR potentiators in triplicate)), 2481 (Summary (OXTR potentiators)), 2445 (Primary screen (OXTR potentiators in singlicate))]; type: functional
Oxytocin receptor, sequence (P30559 whole entry): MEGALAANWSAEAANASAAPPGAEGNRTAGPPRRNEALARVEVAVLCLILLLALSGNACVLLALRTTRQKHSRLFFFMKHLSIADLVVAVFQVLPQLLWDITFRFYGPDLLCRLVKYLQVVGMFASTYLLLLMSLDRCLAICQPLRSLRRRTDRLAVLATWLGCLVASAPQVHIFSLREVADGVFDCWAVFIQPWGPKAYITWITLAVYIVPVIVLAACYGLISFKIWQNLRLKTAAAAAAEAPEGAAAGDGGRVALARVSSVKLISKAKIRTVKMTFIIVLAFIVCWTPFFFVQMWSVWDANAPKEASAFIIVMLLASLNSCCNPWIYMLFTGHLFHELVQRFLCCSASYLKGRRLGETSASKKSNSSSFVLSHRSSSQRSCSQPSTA

Genome polyprotein, sequence (Q2Q167 whole entry): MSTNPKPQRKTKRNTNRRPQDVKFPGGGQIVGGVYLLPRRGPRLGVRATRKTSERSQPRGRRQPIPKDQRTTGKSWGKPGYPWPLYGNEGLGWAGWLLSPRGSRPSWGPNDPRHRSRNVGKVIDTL

CN(CC(=O)Nc1cccc(F)c1)C(=O)c1cccc(-n2cccc2)c1
IC50 (Genome polyprotein): > 49.8 µM (not active)
CC50 [1]: > 40 µM (active)
IC50 [2]: 6.19 µM (active)

CC1(CCc2ccccc2)N=C(S)N(c2ccc(Cl)cc2)N1 (stereo unspecified)
IC50 [3]: > 100 µM (active)

ClCCN1c2ccccc2Sc2ccc(Cl)cc21
IC50 (NADPH oxidase 1): > 50 µM (not active)

O=C(O)CCn1c(SCc2cccc3ccccc23)nc2ccccc21
IC50 [4]: 36 µM (active)

O=C(Nc1ccccc1)Nc1cc(OCC(F)(F)F)cc(OCC(F)(F)F)c1
IC50 [5]: 2.35 µM (active)
EC50 [6]: 6.09 µM (active)
AC50 (Paired box protein Pax-8): 6.93 µM (active)
AC50 [7]: 6.97 µM (active)
IC50 [8]: > 25 µM (inactive)
EC50 [9]: 0.719 µM (active)
EC50 (Streptococcus): 9.63 µM (active)
EC50 [10]: 4.56 µM (active)
IC50 [11]: 0.26 µM (active)
IC50 [12]: 1.68 µM (active)
IC50 [13]: 1.3 µM (active)
IC50 [14]: 0.0827 µM (active)
EC50 (Streptokinase A): 18.1 µM (active)
EC50 [15]: 7.18 µM (active)
EC50 [16]: 6.81 µM (active)
EC50 [17]: < 6 µM (inconclusive)
IC50 [18]: > 49.8 µM (not active)
AC50 [19]: 6.4 µM (active)

CCNC(=O)CN(CC)CC(=O)c1cc(C)n(Cc2ccccc2)c1C
EC50 [20]: > 30 µM (not active)

Cc1cc(C)n(-c2cc(C(C)(C)C)nc3c(-c4ccc(Cl)cc4)cnn23)n1
EC50 (Oxytocin receptor): > 29.9 µM (not active)

Source: ChEMBL document CHEMBL1201862, “PubChem BioAssay data set” (2004)
